Results as given in US20130121994A1, “TRIAZOLOPYRIDINE DERIVATIVES” (BAYER INTELLECTUAL PROPERTY GMBH, priority 2009, published 2013).

biological target: T1, human kinase Mps-1 (Homo sapiens, UniProt P33981); test: Mps-1 kinase assay (HTRF); format: biochemical
T1 construct: N-terminally GST-tagged human full length recombinant Mps-1 kinase; GST (N); purchased Invitrogen, Karslruhe, Germany PV4071
T1 sequence (P33981 1-857): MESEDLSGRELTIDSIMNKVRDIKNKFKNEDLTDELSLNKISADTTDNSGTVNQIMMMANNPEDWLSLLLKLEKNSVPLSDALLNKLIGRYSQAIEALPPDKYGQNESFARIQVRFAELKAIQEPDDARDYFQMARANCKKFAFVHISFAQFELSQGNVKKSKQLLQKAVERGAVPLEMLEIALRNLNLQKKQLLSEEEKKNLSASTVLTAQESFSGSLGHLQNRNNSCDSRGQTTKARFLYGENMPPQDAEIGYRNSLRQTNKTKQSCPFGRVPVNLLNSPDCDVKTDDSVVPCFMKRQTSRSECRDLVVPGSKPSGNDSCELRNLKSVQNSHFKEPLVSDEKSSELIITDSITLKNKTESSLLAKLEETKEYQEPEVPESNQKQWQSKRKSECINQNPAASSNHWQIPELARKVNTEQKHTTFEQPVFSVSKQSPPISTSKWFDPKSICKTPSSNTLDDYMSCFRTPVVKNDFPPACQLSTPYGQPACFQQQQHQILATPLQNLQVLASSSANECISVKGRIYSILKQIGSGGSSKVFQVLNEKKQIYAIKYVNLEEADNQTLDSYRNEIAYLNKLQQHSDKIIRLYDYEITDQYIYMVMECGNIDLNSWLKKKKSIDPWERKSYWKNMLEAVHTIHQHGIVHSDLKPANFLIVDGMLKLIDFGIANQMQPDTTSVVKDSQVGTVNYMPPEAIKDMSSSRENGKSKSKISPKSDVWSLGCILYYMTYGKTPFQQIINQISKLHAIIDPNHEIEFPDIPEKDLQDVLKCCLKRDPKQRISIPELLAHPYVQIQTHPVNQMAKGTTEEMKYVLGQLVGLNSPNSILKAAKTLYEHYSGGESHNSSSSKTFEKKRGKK
Method: The human kinase Mps-1 phosphorylates a biotinylated substrate peptide. Detection of the phosphorylated product is achieved by homogenous time-resolved fluorescence resonance energy transfer (HTRF) from Europium-labelled anti-phospho-Serine/Threonine antibody as donor to streptavidin labelled with cross-linked allophycocyanin (SA-XLent) as acceptor. Compounds are tested for their inhibition of the kinase activity.
N-terminally GST-tagged human full length recombinant Mps-1 kinase (purchased from Invitrogen, Karslruhe, Germany, cat. no PV4071) was used. As substrate for the kinase reaction a biotinylated peptide of the amino-acid sequence […] (C-terminus in amide form, purchased from Biosynthan GmbH, Berlin) was used.
The concentration of Mps-1 in the assay was adjusted to the activity of the enzyme lot and was chosen appropriate to have the assay in the linear range, typical enzyme concentrations were in the range of about 1 nM (final conc. in the 5 μl assay volume).
The resulting mixture was incubated 1 h at 22° C. to allow the binding of the phosphorylated peptide to the anti-phospho(Ser/Thr)-Europium-antibody. Subsequently the amount of phosphorylated substrate was evaluated by measurement of the resonance energy transfer from the Europium-labelled anti-phospho(Ser/Thr) antibody to the Streptavidin-XLent.

Row | IC50 | SMILES
1 | 6.72 nM | COC(C)CNC(=O)c1cccc(-c2ccc3nc(Nc4ccccc4C#N)nn3c2)c1 (racemic) [Example 11.053, rac-3-{2-[(2-cyanophenyl)amino][1,2,4]triazolo[1,5-a]pyridin-6-yl}-N-(2-methoxypropyl)benzamide]
2 | 17 nM | COc1cc(C#N)ccc1Nc1nc2ccc(-c3cc(C)c(O)c(C)c3)cn2n1 [Example 1.1, 4-{[6-(4-hydroxy-3,5-dimethylphenyl)[1,2,4]triazolo[1,5-a]pyridin-2-yl]amino}-3-methoxybenzonitrile]
3 | 180 nM | COc1ccc(Nc2nc3ccc(-c4cc(C)c(O)c(C)c4)cn3n2)c(OC)c1 [Example 1.2, 4-{2-[(2,4-dimethoxyphenyl)amino] [1,2,4]triazolo[1,5-a]pyridin-6-yl}-2,6-dimethylphenol]
4 | 2700 nM | Cc1cc(-c2ccc3nc(Nc4cncnc4)nn3c2)cc(C)c1O [Example 1.4, 2,6-dimethyl-4-[2-(pyrimidin-5-ylamino)[1,2,4]triazolo [1,5-a]pyridin-6-yl]phenol]
5 | 150 nM | COc1ccc(F)cc1Nc1nc2ccc(-c3cc(C)c(O)c(C)c3)cn2n1 [Example 1.6, 4-{2-[(5-fluoro-2-methoxyphenyl)amino] [1,2,4]triazolo[1,5-a]pyridin-6-yl}-2,6-dimethylphenol]
6 | 320 nM | Cc1cc(-c2ccc3nc(Nc4cccnc4)nn3c2)cc(C)c1O [Example 1.8, 2,6-dimethyl-4-[2-(pyridin-3-ylamino)[1,2,4]triazolo [1,5-a]pyridin-6-yl]phenol]
7 | 140 nM | Cc1cc(-c2ccc3nc(Nc4ccccc4OC(F)(F)F)nn3c2)cc(C)c1O [Example 1.10, 2,6-dimethyl-4-(2-{[2-(trifluoromethoxy)phenyl]amino}[1,2,4]tri-azolo[1,5-a]pyridin-6-yl)phenol]
8 | 92 nM | CCOc1ccccc1Nc1nc2ccc(-c3cc(C)c(O)c(C)c3)cn2n1 [Example 1.12, 4-{2-[(2-ethoxyphenyl)amino] [1,2,4]triazolo[1,5-a]pyridin-6-yl}-2,6-dimethylphenol]
9 | 640 nM | COc1ccc(C#N)cc1Nc1nc2ccc(-c3cc(C)c(O)c(C)c3)cn2n1 [Example 1.13, 3-{[6-(4-hydroxy-3,5-dimethylphenyl)[1,2,4]triazolo[1,5-a]pyridin-2-yl]amino}-4-methoxybenzonitrile]
10 | 160 nM | COc1cccnc1Nc1nc2ccc(-c3cc(C)c(O)c(C)c3)cn2n1 [Example 1.14, 4-{2-[(3-methoxypyridin-2-yl)amino][1,2,4]tri-azolo[1,5-a]pyridin-6-yl}-2,6-dimethylphenol]
11 | 23 nM | CNC(=O)c1ccc(Nc2nc3ccc(-c4cc(C)c(O)c(C)c4)cn3n2)cc1 [Example 1.15, 4-{[6-(4-hydroxy-3,5-dimethylphenyl)[1,2,4]triazolo[1,5-a]pyridin-2-yl]amino}-N-methylbenzamide]
12 | 280 nM | CCN(CC)C(=O)c1ccc(Nc2nc3ccc(-c4cc(C)c(O)c(C)c4)cn3n2)c(OC)c1 [Example 1.16, N,N-Diethyl-4-[6-(4-hydroxy-3,5-dimethyl-phenyl)-[1,2,4]triazolo[1,5-a]pyridin-2-ylamino]-3-methoxy-benzamide]
13 | 470 nM | COc1ccc(F)cc1Nc1nc2ccc(-c3cccc(NC(C)=O)c3)cn2n1 [Example 2.2, N-(3-{2-[(5-fluoro-2-methoxyphenyl)amino] [1,2,4]triazolo[1,5-a]pyridin-6-yl}phenyl)acetamide]
14 | 3100 nM | CC(=O)Nc1cccc(-c2ccc3nc(Nc4cccnc4)nn3c2)c1 [Example 2.4, N-{3-[2-(pyridin-3-ylamino)[1,2,4]triazolo [1,5-a]pyridin-6-yl]phenyl}acetamide]
15 | 770 nM | CC(=O)Nc1cccc(-c2ccc3nc(Nc4ccc(S(C)(=O)=O)cc4)nn3c2)c1 [Example 2.5, N-[3-(2-{[4-(methylsulfonyl)phen-yl]amino}[1,2,4]triazolo [1,5-a]pyridin-6-yl)phenyl]acetamide]
